Results as given in article PMC5349447, “Applying a high-throughput fluorescence polarization assay for the discovery of chemical probes blocking La:RNA interactions in vitro and in cells” (PLoS ONE, 2017).

Key:
Format in all cases: cell-based, human
SCC 22B cells = test: Cisplatin sensitization, CyQUANT, SCC 22B; conditions: 50 μM C2.01 pretreatment
Experimental: To test whether compound C2.01 sensitizes cells for cisplatin, cells were treated with 0.2% DMSO alone, cisplatin at 4, 8, 16, 32 or 64 μM concentration alone or in combination with 50 μM compound C2.01. The half maximal inhibitory concentration (IC50) of cisplatin was determined by treating SCC 22B cells with increasing cisplatin (Selleckchem) concentrations or vehicle (DMSO) for 48 h (96-well format) as described recently. For this experiments 1x10^4 SCC 22B cells were plated the day before the experiment. DMSO or C2.01 was added to a final concentration of DMSO (0.05%) and C2.01 (50 μM). Six hours later the different cisplatin concentrations were added. The highest DMSO concentration of 0.25% was used in the control for cisplatin and C2.01 double treatment. Subsequently, cells were washed twice with 1x PBS and quantified after staining with fluorescence dye (CyQUANT®, Life Technologies) 48 after the initial C2.01 treatment.

[1] = test system: Bcl2 protein level in SCC 22B cells; test: Immunoblot for Bcl2, SCC 22B; conditions: cisplatin and C2.01 (50 μM) versus vehicle
[2] = test system: Bcl2 protein level in SCC 22A cells; test: Immunoblot for Bcl2, SCC 22A; conditions: cisplatin and C2.01 (50 μM) versus vehicle

Question: Which results are given for `Cc1ccc(C(=O)c2ccccc2C(=O)O)c(O)c1` [C2.01, 2-(2-hydroxy-4-methylbenzoyl)benzoic acid]?
Answer: sensitization of SCC 22B cells for cisplatin treatment (SCC 22B cells): sensitizes; Bcl2 protein levels (immunoblot) [1]: reduced; Bcl2 protein levels (immunoblot) [2]: reduced
